# Assay results reported in patent US20240316023A1, “BENEDIN, PIPERIDINE, 2-BENZHYDRYL-3-HYDROXY-N-METHYL-, HYDROCHLORIDE AND DERIVATIVES THEREOF FOR USE IN TREATING KLEINE-LEVIN SYNDROME” (priority 2021, published 2024).
# Legend:
# [1] = biological target: T1, DAT (h) (antagonist radioligand) (Homo sapiens, UniProt Q01959); test: Radioligand binding panel (Eurofins/CEREP), DAT; settings: % inhibition of control specific binding
# T1 construct: CEREP (Eurofins, France), contract panel
# Protocol: Benedin was tested at 10^−5 M, calculated as a % inhibition of control specific binding of a radioactively labeled ligand specific for each target.
# This binding profile panel was broadly defined with roughly an equal number of selective, central and peripheral therapeutically relevant targets, including native animal tissues, radioligands and specific enzymes involved in cell cycle regulation in accordance with Eurofins Standard Operating Procedure.
# For radioligand binding experiments, the half maximal inhibitory concentration (IC50) and the half maximal effective concentration (EC50) values were determined (via computer software) by nonlinear regression analysis of the competition curves using Hill equation curve fitting. The inhibition constants (Ki) were calculated using the Cheng-Prusoff equation (Ki=IC50/(1+(L/KD)), where L is the concentration of radioligand in the assay, and KD is the affinity of the radioligand for the receptor.^60
# The results are expressed as a % control specific binding ([measured specific binding/control specific binding]×100) and as a % inhibition of control specific binding (100−[(measured specific binding/control specific binding)×100] obtained in the presence of the test compounds. […]
# [2] = biological target: T2, RXFP3 (h) (agonist radioligand) (Homo sapiens, UniProt Q9NSD7); test: GPCR Biosensor cAMP Hunter assay, RXFP3; format: cell-based
# T2 sequence (Q9NSD7 1-469): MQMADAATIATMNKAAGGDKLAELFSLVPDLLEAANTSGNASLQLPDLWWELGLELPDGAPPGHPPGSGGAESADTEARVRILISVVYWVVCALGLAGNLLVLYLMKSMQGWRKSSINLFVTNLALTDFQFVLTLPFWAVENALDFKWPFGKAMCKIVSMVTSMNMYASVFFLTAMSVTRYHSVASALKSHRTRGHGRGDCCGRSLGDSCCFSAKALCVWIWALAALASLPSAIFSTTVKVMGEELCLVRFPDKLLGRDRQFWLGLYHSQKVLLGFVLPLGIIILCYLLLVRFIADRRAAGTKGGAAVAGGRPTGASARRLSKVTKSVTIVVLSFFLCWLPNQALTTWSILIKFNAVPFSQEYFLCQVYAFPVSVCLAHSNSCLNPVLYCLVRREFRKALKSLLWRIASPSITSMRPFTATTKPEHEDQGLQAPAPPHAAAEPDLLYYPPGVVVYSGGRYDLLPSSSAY
# Protocol: Benedin is found to weakly bind with RXFP4 and RXFP3 receptors (Study FR095-0024749-Q Eurofins/leadHunter Jun. 25, 2021; unpublished data) (Table 2).
# In these assays' compounds were tested in agonist and antagonist mode with the GPCR Biosensor Assays and match to this design:
# 1. cAMP Hunter cell lines were expanded from freezer stocks according to standard procedures.
# 2. Cells were seeded in a total volume of 20 μL into white walled, 384-well microplates and incubated at 37° C. for the appropriate time prior to testing.
# 3. cAMP modulation was determined using the DiscoverX HitHunter CAMP XS+assay.
# 1. For agonist determination, cells were incubated with sample in the presence of EC80 forskolin to induce response.
# 2. Media was aspirated from cells and replaced with 15 μL 2:1 HBSS/10 mM Hepes: CAMP XS+Ab reagent. […]
# 2. Microplates were read following signal generation with a PerkinElmer Envision™ instrument for chemiluminescent signal detection.
# 5. For Gi agonist mode assays, percentage activity is calculated using the following formula: % Activity=100%×(1−(mean RLU of test sample-mean RLU of MAX control)/(mean RLU of vehicle control−mean RLU of MAX control)).
# 8. For Gi antagonist or negative allosteric mode assays, percentage inhibition is calculated using the following formula: % Inhibition=100%×(mean RLU of test sample−mean RLU of EC80 control)/(mean RLU of forskolin positive control−mean RLU of […]
# [3] = 10^−5 M, read-out: % Inhibition at 10^−5M Benedin
# T1 sequence (Q01959 whole entry): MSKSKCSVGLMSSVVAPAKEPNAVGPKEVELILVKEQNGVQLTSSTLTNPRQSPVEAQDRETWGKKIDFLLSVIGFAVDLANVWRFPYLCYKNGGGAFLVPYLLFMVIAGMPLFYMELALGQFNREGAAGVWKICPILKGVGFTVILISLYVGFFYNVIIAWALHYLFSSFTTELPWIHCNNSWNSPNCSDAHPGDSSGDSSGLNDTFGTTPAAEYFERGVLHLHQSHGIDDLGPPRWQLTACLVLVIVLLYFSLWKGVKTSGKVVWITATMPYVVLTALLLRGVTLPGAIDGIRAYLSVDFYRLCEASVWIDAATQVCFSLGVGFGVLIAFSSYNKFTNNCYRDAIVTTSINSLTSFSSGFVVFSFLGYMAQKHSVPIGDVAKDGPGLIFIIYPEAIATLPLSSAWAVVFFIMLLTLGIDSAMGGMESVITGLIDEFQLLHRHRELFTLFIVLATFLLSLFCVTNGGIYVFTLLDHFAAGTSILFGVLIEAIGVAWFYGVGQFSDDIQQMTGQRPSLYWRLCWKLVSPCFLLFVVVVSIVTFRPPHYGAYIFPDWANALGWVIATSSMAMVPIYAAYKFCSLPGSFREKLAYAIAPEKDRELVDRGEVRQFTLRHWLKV
smiles,measurement,setting,value
"CN1CCCC(O)C1C(c1ccccc1)c1ccccc1 (stereo not shown) [Benedin, 2-benzhydryl-3-hydroxy-N-methyl-piperidine]",inhibition at 10 µM,[1]; [3],99.1%
same,% Inhibition at 10^−5M Benedin,[1],appreciable potencies
same,% Inhibition at 10^−5M Benedin,[2],weakly bind
same,inhibition at 10 µM,[2]; [3],21.4%
